According to publication PMC5729429, “Gimatecan exerts potent antitumor activity against gastric cancer in vitro and in vivo via AKT and MAPK signaling pathways” (Journal of Translational Medicine, 2017):
Counter-ions that a name gives are not always drawn.

Tested on: SNU-1 cells
Assay: Annexin V-PE/7-AAD apoptosis assay (flow cytometry), SNU-1
Type: cell-based, human
Conditions: 24 h
Procedure: Apoptosis was measured by staining with phycoerythrin (PE)-annexin V and 7-amino-actinomycin (7-AAD) (BD Biosciences, Erembodegem, Belgium) for 15 min at room temperature in the dark, followed by flow cytometry (BD Biosciences) within 1 h. Apoptosis was analyzed with FlowJo 7.6 software (FlowJo, LLC, Ashland, Oregon).
Cells were treated with gimatecan (0–1 µM) and irinotecan (0–1 µM) for 24 h and stained with Annexin V-PE/7-AAD. Sums of percentages of early apoptosis (Q3) and late apoptosis (Q2) were calculated as the total apoptosis ratios. c, d Pro- and anti-apoptotic proteins including Bcl-2, Bak, PARP and cleaved PARP were assessed by western-blotting in SNU-1 and NCI-N87 cells. Western-blotting bands were quantified and normalized by ImageJ. […] They are left out because no substance is present, and they are also barely readable.

Compound | apoptosis induced compared with controls (0–1 µM, stated generally for the GC cell lines tested) | proportion of apoptotic cells (SNU-1, 1000 nM) [%]
CCc1c2c(nc3ccc(OC(=O)N4CCC(N5CCCCC5)CC4)cc13)-c1cc3c(c(=O)n1C2)COC(=O)[C@]3(O)CC [Irinotecan, irinotecan hydrochloride] | not obvious | –
CC[C@@]1(O)C(=O)OCc2c1cc1n(c2=O)Cc2c-1nc1ccccc1c2/C=N/OC(C)(C)C [Gimatecan, 7-t-butoxyiminomethylcamptothecin] | – | 14.38 ± 2.11
